From patent US20230061223A1, “USE OF 5-AMINO-2,3-DIHYDRO-1,4-PHTHALAZINEDIONE IN THE INHALATORY TREATMENT OF INFLAMMATORY PULMONARY DISEASES” (MetrioPharm AG, priority 2020, published 2023) come the findings set out here.

Like-named read-outs stand apart in the source and are kept apart here.

For data set [1], the system named is cigarette smoke-induced 3-nitrotyrosine formation in the lung parenchyma. The note with it: for 3-nitrotyrosine stained surface area, mean ± SEM: n=5 mice, room air 0.24, smoke alone 3.07. As for the experimental part: 5-amino-2,3-dihydro-1,4-phthalazinedione sodium salt Form I was tested in an isolated, ventilated and perfused mouse lung system that was stimulated with cigarette smoke.
The isolated, ventilated and perfused mouse lung system (ILU) is an established model for studying acute effects of various conditions and drugs on lung parenchyma and vasculature. It is mainly used for examining effects of hypoxia and for evaluating the efficacy of potential drugs on the hypoxic pulmonary vasoreaction (cf. Weissmann et al. (2006) Proc Natl Acad Sci USA 103: 19093-19098).
C57BL/6J mice (n=25, 5 per group; male/female, 3-6 months, 20-30 g; Charles River GmbH, Sulzfeld, Germany) were anesthetized with a ketamine (100 mg/kg body weight) and xylazine (20 mg/kg body weight) intraperitoneal injection (Ceva Tiergesundheit GmbH, Dusseldorf, Germany) containing heparin (50 I.E. heparin/g body weight; Ratiopharm GmbH, Ulm, Germany). The lungs and the heart were removed from the chest cavity and placed on the ILU system (see FIGS. 1A and 1B). Lungs were ventilated in an isolated chamber using normoxic gas (21% O2, 5% CO2, 74% N2; 150 breaths per minute at the PEEP (positive end-expiratory pressure) of 3 cm H2O) and perfused with a modified Krebs-Henseleit buffer (120.0 mM NaCl, 4.3 mM KCl, 1.1 mM KH2PO4, 2.4 mM CaCl2, 1.3 mM MgCl2, 13.14 mM glucose, 0.25 mM hydroxyethyl starch 200000/0.5, 25.0 mM NaHCO3 adjusted to a constant pH range of […] L-arginine; Serag-Wissner GmbH & Co. KG, Naila, Germany) at a temperature of 37° C. Lung weight, right and left ventricle pressure, as well as ventilatory pressure were monitored and recorded during the whole experimental procedure. After 5-10 minutes, when the lung was properly flushed and all the parameters were stable, 5-amino-2,3-dihydro-1,4-phthalazinedione sodium salt was applied by adding 150 μl of a stock solution to 15 ml of the circulating perfusion buffer. The substance was applied 10 minutes prior to the first cigarette smoke application. Cigarette smoke was applied via trachea while lung is perfused with the buffer containing 5-amino-2,3-dihydro-1,4-phthalazinedione sodium salt. Cigarette smoke was prepared freshly before each application, by burning one cigarette (research cigarettes 3R4F, University of Kentucky, USA) in one minute using normoxic gas at the flow of 11/min and collected in a 11 glass bottle containing 5 g silica gel for removing the moist from the cigarette smoke. 50 ml of the cigarette smoke were taken via a syringe and applied to the lung via trachea (FIG. 1A) in deep breaths (periodic inflation for 3-4 s) over a period of 5 min. The application was done manually while carefully monitoring the inspiratory pressure to avoid damage of the lung. The cigarette smoke application was repeated three times with a 1 hour break in-between.
Five treatment groups (n=5, respectively) were investigated:
C: cigarette smoke+0.5 mM 5-amino-2,3-dihydro-1,4-phthalazinedione sodium salt
D: cigarette smoke+1 mM 5-amino-2,3-dihydro-1,4-phthalazinedione sodium salt
E: cigarette smoke+2 mM 5-amino-2,3-dihydro-1,4-phthalazinedione sodium salt
5-amino-2,3-dihydro-1,4-phthalazinedione sodium salt Form I was dissolved in water for injection (vehicle) at the required concentrations described above. Stock solutions were prepared in water for injection. Further 1:100 dilutions were made with modified Krebs-Henseleit buffer (see above). Stock solutions were stored at −70° C. in appropriate aliquots. The required amount of stock solution was thawed, and the corresponding working solution was prepared for immediate use.
One hour after the third cigarette smoke application lungs were removed from the system and fixed by inflating with formalin solution (via trachea) at the pressure of 12-15 cm H2O for two hours at room temperature. Afterwards the fixed lungs were kept in PBS (phosphate buffer saline, see below) at +4° C. until further dehydration and paraffin embedding.

The nature of data set [2]: aerosol characterisation (MMAD, FPF, FPM) by cascade impactor (Next Generation Impactor) after vibrating mesh nebulization. The note with it: for FPF (fine particle fraction, <5 μm) / FPM (fine particle mass, 1 μm to 5 μm) / MMAD: vibrating mesh nebulizer; for FPF (fine particle fraction, <5 μm) / FPM (fine particle mass, 1 μm to 5 μm) / MMAD / released dosage: NGI at 4° C.; for released dosage at the mouthpiece as percentage of the nominal value: 3 min nebulization; for released dosage: at the mouthpiece, M-neb dose+ mesh nebulizer; for time of aerosol release: corresponds to 30 strokes/breaths; for residual amounts in the mouthpiece: mouthpiece SK-211. The class given is physicochemical. As for the experimental part:
It is expressly stated that the values and ranges disclosed herein refer to measurements of the MMAD, FPF and FPM by means of a cascade impactor (Next Generation Impactor, NGI) cooled down to 4° C.
The particle size distribution (FPM) and the mass median aerodynamic diameter (MMAD) of an aerosol generated from an aqueous solution containing 5-amino-2,3-dihydro-1,4-phthalazinedione sodium salt was analyzed.
Crystalline polymorph Form I of 5-amino-2,3-dihydro-1,4-phthalazinedione sodium salt was solved in physiological saline solution (double distilled water containing 0.9% NaCl). The final concentration solution was 20 mg/ml 5-amino-2,3-dihydro-1,4-phthalazinedione sodium salt.
The experimental procedure was carried out pursuant to Ph. Eur. 2.9.44 (Preparations for Nebulisation: Characterisation). A cascade impactor (Next Generation Impactor (NGI), Copley Scientific Ltd., Nottingham, UK) was used to determine the respective percentage for each fraction of the nebulized particles. The cascade impactor was cooled to 4° C. for the measurements
The nebulization of this aqueous solution of 5-amino-2,3-dihydro-1,4-phthalazinedione sodium salt was carried out by means of a vibrating mesh nebulizer (M-neb-dose+, NEBU-TEC, Eisenfeld, Germany). The thus generated aerosol was delivered to the cascade impactor by means of a mouthpiece (SK-211, NEBU-TEC, Eisenfeld, Germany).
The nebulization chamber (yellow stamp, 250 μl liquid discharge) was filled. The puff profile configured at the breath simulator was chosen in such a way that a correct simulation of inhalation by means of the nebulizer was ensured. The corresponding time was recorded.
The quantification of nebulized 5-amino-2,3-dihydro-1,4-phthalazinedione sodium salt per cascade was carried out after extraction from the cascade pans (stage 1-8) by means of HPLC with reference to an external standard calibration curve (range 0-200 μg/ml; correlation coefficient: 0.9999).
Single values obtained for each cascade were added. […] MMAD, FPF and FPM were calculated from the obtained values: […]
For comparison, the particle size distribution (FPF and FPM) and the mass median aerodynamic diameter (MMAD) of an aerosol generated from a physiological saline solution containing salbutamol sulfate was analyzed (not part of the invention). The procedure was the same as described in Example 2.
Salbutamol is one of the most widely used substances for acute asthma attacks. It is often administered via metered-dose inhalers. Therefore, a physiological saline solution of salbutamol sulfate was tested in order to determine the particle size distribution. The standard dosage (Albutol Sulfate) of 180 μg (90 μg/spray application, 2 spray applications per inhalation session) was dissolved in physiological saline.
The procedure was the same as described in Example 2.
The standard dosage (Atrovent) of 18 μg/spray application was dissolved in physiological saline.

[3] abbreviates: 20 mg/ml in physiological saline.
Setting [4] is: aerosol from physiological saline solution.
Setting [5] is: standard dosage in physiological saline.

Take `Nc1cccc2c(=O)[nH][nH]c(=O)c12.[Na]` [5-amino-2,3-dihydro-1,4-phthalazinedione sodium salt]: the “effect on cigarette smoke induced 3-nitrotyrosine formation (in words)” value (shortened to “effect”) in data set [1] (0.5 mM in perfusion buffer) is “moderate effect”. Further, the “effect” value in data set [1] (1 mM in perfusion buffer) is on record as “almost completely abolished”. The “effect” value in data set [1] (2 mM in perfusion buffer) was “almost completely abolished”. Also, the “cigarette smoke-induced 3-nitrotyrosine formation in the lung parenchyma, pre-treatment (in words)” value in data set [1] (ILU model, pre-treatment) was “prevents”. In data set [1] (cigarette smoke + 0.5 mM in perfusion buffer), the “3-nitrotyrosine stained surface area, mean ± SEM” value is recorded as 2.24 ± 0.28 % area. Further, the “3-nitrotyrosine stained surface area, mean ± SEM” value in data set [1] (cigarette smoke + 1 mM in perfusion buffer) worked out at 0.72 ± 0.26 % area. The “3-nitrotyrosine stained surface area, mean ± SEM” value in data set [1] (cigarette smoke + 2 mM in perfusion buffer) is 0.37 ± 0.13 % area. Further, the “ROS/RNS levels in cigarette smoke-stimulated mouse lung (in words)” value in data set [1] (ex vivo mouse lung, 0.5-2 mM) is reported as “dose-dependent reduction of ROS/RNS levels down to control levels”. Further, in data set [2] (setting [3]), the “FPF (fine particle fraction, <5 μm)” value is 3.5 mg; the “FPM (fine particle mass, 1 μm to 5 μm)” value is 3300 µg; the released dosage is 4700 µg. Further, in data set [2], the “released dosage at the mouthpiece as percentage of the nominal value” is on record as 95%, the “time of aerosol release” value is 3 min and the “residual amounts in the mouthpiece” value was “No residual amounts”. Also, in data set [2] (setting [4]), the “FPF (fine particle fraction, <5 μm)” value is 74.3% and the MMAD worked out at 3.1 μm. In addition, the “FPM (fine particle mass, 1 μm to 5 μm)” value in data set [2] (aerosol from physiological saline solution, sodium salt) came to 69.0%. Also, in data set [2] (versus ipratropium bromide), the FPF in comparison result is given as “slightly higher”, the FPM in comparison entry is listed as “slightly smaller” and the MMAD in comparison entry was “clearly smaller”. In data set [2] (versus salbutamol sulfate), the FPF in comparison entry was “slightly higher”, the FPM in comparison result is “in a similar range” and the MMAD in comparison entry is recorded as “clearly smaller”.
Consider `CC(C)[N+]1(C)[C@@H]2CC[C@H]1CC(OC(=O)C(CO)c1ccccc1)C2.[Br-]` (stereo partly drawn) [ipratropium bromide, reference compound], for which, in data set [2], the “released dosage at the mouthpiece as percentage of the nominal value” is listed as 86%, the “time of aerosol release” value stood at 3 min and the “residual amounts in the mouthpiece” value is “No residual amounts”. In addition, in data set [2] (setting [4]), the “FPM (fine particle mass, 1 μm to 5 μm)” value is on record as 69.4% and the MMAD is 3.59 μm. In addition, in data set [2] (setting [5]), the released dosage worked out at 15 µg and the “FPM (fine particle mass, 1 μm to 5 μm)” value was found to be 10 µg.
For the compound salbutamol sulfate [reference compound], in data set [2], the “released dosage at the mouthpiece as percentage of the nominal value” turned out to be 92%, the “time of aerosol release” value stood at 3 min and the “residual amounts in the mouthpiece” value is “No residual amounts”. Moreover, in data set [2] (setting [4]), the “FPF (fine particle fraction, <5 μm)” value was 73.3%; the “FPM (fine particle mass, 1 μm to 5 μm)” value came out at 69.1%; the MMAD is on record as 3.57 μm. Moreover, in data set [2] (setting [5]), the released dosage was 166 µg; the “FPF (fine particle fraction, <5 μm)” value was 0.122 mg; the “FPM (fine particle mass, 1 μm to 5 μm)” value came out at 115 µg.
